Values of other authors, collected in US8703192B2, “Dosage form containing pantoprazole as active ingredient” (Takeda GmbH, priority 2003, dated 2014).

Conditions: in comparison to pantoprazole itself or to pantoprazole sodium sesquihydrate

**Q.** For `COc1ccnc(C[S+]([O-])c2nc3cc(OC(F)F)ccc3[n-]2)c1OC.COc1ccnc(C[S+]([O-])c2nc3cc(OC(F)F)ccc3[n-]2)c1OC.O.O.[Mg+2]` (stereo not shown) [Magnesium bis[5-[difluoromethoxy]-2-[[3,4-dimethoxy-2-pyridinyl]-methyl]sulfinyl]-1H-benzimidazolide]dihydrate], which stability properties is on record?
**A.** improved stability properties
